# Key:
# Rho kinase 2 (ROCK2) = Rho kinase 2 (ROCK2) (Homo sapiens, UniProt O75116); test: In vitro inhibitory activity assay ROCK2 (ADP-Glo); format: biochemical; conditions: ATP 200 μM, Cheng-Prusoff from IC50; read-out: ROCK2 (Ki, range of activity)
# Experimental: (§1) The effectiveness of compounds of the present invention to inhibit Rho kinase activity can be determined in a 10 μl assay containing 40 mM Tris pH7.5, 20 mM MgCl2 0.1 mg/mL BSA, 50 μM DTT and 2.5 μM peptide substrate (Myelin Basic Protein) using an ADP-Glo kit (Promega). Compounds were dissolved in DMSO such that the final concentration of DMSO was 1% in the assay. All reactions/incubations are performed at 25° C. Compound (2 ul) and either Rho kinase 1 or 2 (4 μl) were mixed and incubated for 30 mins. Reactions were initiated by addition of ATP (4μ1) such that the final concentration of ATP in the assay was 200 μM. After a 1 hour incubation 10 μl of ADP-Glo Reagent was added and after a further 1 hour incubation 20 ul of Kinase Detection Buffer was added and the mixture incubated for a further 45 minutes. The luminescent signal was measured on a luminometer. […] Compounds were tested in dose-response format and the inhibition of kinase activity was calculated at each concentration of compound. To determine the IC50 (concentration of compound required to inhibit 50% of the enzyme activity) data were fit to a plot of % inhibition vs Log10 compound concentration using a sigmoidal fit with a variable slope and fixing the maximum to 100% and the minimum to 0%. To determine the Ki values the Cheng-Prusoff equation was utilized (Ki=IC50/(1+[S]/Km).
# Rho kinase 1 (ROCK1) = Rho kinase 1 (ROCK1) (Homo sapiens, UniProt Q13464); test: In vitro inhibitory activity assay ROCK1 (ADP-Glo); format: biochemical; conditions: ATP 200 μM, Cheng-Prusoff from IC50; read-out: ROCK 1 (Ki, range of activity)
# Chain of Rho kinase 1 (ROCK1) (Q13464 whole entry): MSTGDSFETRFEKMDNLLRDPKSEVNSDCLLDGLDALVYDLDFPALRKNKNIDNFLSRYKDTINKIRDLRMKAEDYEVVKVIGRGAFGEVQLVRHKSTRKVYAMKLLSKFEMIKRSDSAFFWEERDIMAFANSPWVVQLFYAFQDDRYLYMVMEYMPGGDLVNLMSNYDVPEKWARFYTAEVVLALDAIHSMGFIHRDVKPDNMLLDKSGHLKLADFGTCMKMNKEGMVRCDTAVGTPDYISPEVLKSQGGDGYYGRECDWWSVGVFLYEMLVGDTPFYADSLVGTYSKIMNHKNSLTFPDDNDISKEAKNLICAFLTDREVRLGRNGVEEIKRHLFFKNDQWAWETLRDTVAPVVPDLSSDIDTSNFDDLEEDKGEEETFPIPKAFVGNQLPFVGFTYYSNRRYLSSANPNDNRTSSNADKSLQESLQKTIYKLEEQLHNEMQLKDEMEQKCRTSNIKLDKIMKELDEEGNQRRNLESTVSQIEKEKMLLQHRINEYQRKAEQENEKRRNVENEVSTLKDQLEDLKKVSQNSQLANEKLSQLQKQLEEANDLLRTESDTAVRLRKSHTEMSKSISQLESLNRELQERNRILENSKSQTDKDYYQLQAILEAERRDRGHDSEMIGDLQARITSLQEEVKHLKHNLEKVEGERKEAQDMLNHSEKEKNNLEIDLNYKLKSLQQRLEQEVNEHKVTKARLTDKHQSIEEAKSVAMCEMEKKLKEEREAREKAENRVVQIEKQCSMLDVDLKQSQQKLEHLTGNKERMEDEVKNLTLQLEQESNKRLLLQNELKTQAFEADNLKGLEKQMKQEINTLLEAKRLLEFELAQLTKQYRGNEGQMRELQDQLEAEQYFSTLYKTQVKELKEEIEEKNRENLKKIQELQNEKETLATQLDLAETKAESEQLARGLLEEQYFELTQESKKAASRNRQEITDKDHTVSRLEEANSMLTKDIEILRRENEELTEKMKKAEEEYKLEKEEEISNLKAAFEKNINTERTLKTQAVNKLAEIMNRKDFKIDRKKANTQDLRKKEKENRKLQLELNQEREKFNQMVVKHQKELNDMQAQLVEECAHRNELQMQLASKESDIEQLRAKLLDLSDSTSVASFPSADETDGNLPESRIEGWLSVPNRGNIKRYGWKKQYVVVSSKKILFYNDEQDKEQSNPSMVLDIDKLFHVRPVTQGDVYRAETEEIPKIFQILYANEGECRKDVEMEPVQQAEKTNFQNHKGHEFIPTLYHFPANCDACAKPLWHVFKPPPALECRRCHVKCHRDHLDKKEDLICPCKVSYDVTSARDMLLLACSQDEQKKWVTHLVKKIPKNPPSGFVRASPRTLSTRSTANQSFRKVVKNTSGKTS
# Experimental: as §1
# [1] = tested on: cch-evoked bronchoconstriction; test: Experimental bronchospasm (carbachol-induced bronchoconstriction, Konzett & Roessler); format: in vivo, Male CD Sprague Dawley rats; conditions: iv, rat, 1 hour after administration, carbachol 80 μg/kg i.v., read-out: Inhibition % (±s.e. mean) of cch-evoked bronchoconstriction; for inhibition in vivo at 0.01 mg/kg: dose 10 μg/Kg intratracheal; for inhibition in vivo at 0.003 mg/kg: dose 3 μg/Kg intratracheal
# Experimental: Male CD Sprague Dawley rats (220-250 g) were purchased from Charles River Laboratories Italy (Calco, Lecco). Prior to use animals were acclimated for at least 5 days 20 to the local vivarium conditions (room temperature: 20-24° C.; relative humidity: 40-70%), having free access to standard rat chow and softened tap water. All the procedures were performed in animal operating rooms according to ethical guidelines for the conduct of animal research (D. L.vo 116/92).
# Rats were anaesthetized with a combination of anesthetics (Zoletil 20 mg/kg+Xylazine 5 mg/kg, ip) for the i.t. administration. A laryngoscope was moved forward into the mouth to visualize the trachea and guide the insertion of the tip of a custom-made small diameter cannula directly into the trachea and located 1-2 mm above the bifurcation.
# In order to assess the residual inhibitory activity of test compounds 1 hour after their administration, rats were surgically prepared. Body temperature was kept constant at 37° C. by a heated blanket.
# The trachea was cannulated and the lungs were ventilated artificially with a constant volume ventilator (rodent ventilator mod. 7025, Ugo Basile, Comerio, Varese, Italy) at a frequency of 80 strokes/min and at a tidal volume of 10 ml/kg. To avoid spontaneous breathing, the animals were injected intravenously (i.v.) with pancuronium bromide (2 mg/kg).
# Bronchoconstriction was induced by the i.v. injection of carbachol (cch) 80 μg/kg. In control experiments, repeated injections of this dose produced reproducible short-lasting (1-2 min duration) bronchospasms. Bronchoconstriction, quantified as a reduction of tidal volume, was evaluated according to the method described by Konzett & Roessler (1). Systemic blood pressure and changes in airway resistance were monitored with a digital pressure transducer.
# After stabilisation of artificial breathing and blood pressure, animals were injected (i.v.) with cch every 3 min, until 3 stable and reproducible basal responses were obtained. […] The effect of test compounds was 15 expressed as % inhibition of cch-evoked bronchoconstriction in time-matched, vehicle-treated, animals (controls).
# Tested compounds were dissolved in dH2O and 1% Tween-80 or 0,001% HCl and further diluted to target concentrations. Tested compounds were instilled locally into the trachea in a volume of 125 μl.
# All data are presented as mean±s.e.mean. The % inhibition of experimental bronchospasm was calculated comparing the drug-treated with the vehicle-treated control animals. Data analysis was performed using GraphPad Prism software.
# PKA = PKA (Homo sapiens, UniProt P17612); test: In vitro inhibitory activity assay for PKA (ADP-Glo), reported as selectivity ratio vs ROCK2; format: biochemical; conditions: Ki value for PKA divided by Ki value of ROCK2
# Experimental: The effectiveness of compounds of the present invention to inhibit PKA activity can be determined in a 10 μl assay containing 40 mM Tris pH7.5, 20 mM MgCl2 0.1 mg/ml BSA, 50 μM DTT and 260 μM peptide substrate (kemptide) using an ADP-Glo kit (Promega). Compounds were dissolved in DMSO such that the final concentration of DMSO was 1% in the assay. All reactions/incubations are performed at 25° C. Compound and PKA enzyme (6 μl) were mixed and incubated for 30 mins. Reactions were initiated by addition of ATP (4 μl ) such that the final concentration of ATP in the assay was 10 μM. After a 30 minute incubation 10 μl of ADP-Glo Reagent was added and after a further 1 hour incubation 20 μl of Kinase Detection Buffer was added and the mixture incubated for a further 45 minutes. The luminescent signal was measured on a luminometer. […] Compounds were tested in dose-response format and the inhibition of kinase activity was calculated at each concentration of compound. To determine the IC50 (concentration of compound required to inhibit 50% of the enzyme activity) data were fit to a plot of % inhibition vs Logio compound concentration using a sigmoidal fit with a variable slope and fixing the maximum to 100% and the minimum to 0%. To determine the Ki values the Cheng-Prusoff equation was utilized (Ki=IC50/(1+[S]/Km).
# In vitro inhibitory activities for PKA were reported as selectivity ratio vs. ROCK-2.
# Chain of Rho kinase 2 (ROCK2) (O75116 whole entry): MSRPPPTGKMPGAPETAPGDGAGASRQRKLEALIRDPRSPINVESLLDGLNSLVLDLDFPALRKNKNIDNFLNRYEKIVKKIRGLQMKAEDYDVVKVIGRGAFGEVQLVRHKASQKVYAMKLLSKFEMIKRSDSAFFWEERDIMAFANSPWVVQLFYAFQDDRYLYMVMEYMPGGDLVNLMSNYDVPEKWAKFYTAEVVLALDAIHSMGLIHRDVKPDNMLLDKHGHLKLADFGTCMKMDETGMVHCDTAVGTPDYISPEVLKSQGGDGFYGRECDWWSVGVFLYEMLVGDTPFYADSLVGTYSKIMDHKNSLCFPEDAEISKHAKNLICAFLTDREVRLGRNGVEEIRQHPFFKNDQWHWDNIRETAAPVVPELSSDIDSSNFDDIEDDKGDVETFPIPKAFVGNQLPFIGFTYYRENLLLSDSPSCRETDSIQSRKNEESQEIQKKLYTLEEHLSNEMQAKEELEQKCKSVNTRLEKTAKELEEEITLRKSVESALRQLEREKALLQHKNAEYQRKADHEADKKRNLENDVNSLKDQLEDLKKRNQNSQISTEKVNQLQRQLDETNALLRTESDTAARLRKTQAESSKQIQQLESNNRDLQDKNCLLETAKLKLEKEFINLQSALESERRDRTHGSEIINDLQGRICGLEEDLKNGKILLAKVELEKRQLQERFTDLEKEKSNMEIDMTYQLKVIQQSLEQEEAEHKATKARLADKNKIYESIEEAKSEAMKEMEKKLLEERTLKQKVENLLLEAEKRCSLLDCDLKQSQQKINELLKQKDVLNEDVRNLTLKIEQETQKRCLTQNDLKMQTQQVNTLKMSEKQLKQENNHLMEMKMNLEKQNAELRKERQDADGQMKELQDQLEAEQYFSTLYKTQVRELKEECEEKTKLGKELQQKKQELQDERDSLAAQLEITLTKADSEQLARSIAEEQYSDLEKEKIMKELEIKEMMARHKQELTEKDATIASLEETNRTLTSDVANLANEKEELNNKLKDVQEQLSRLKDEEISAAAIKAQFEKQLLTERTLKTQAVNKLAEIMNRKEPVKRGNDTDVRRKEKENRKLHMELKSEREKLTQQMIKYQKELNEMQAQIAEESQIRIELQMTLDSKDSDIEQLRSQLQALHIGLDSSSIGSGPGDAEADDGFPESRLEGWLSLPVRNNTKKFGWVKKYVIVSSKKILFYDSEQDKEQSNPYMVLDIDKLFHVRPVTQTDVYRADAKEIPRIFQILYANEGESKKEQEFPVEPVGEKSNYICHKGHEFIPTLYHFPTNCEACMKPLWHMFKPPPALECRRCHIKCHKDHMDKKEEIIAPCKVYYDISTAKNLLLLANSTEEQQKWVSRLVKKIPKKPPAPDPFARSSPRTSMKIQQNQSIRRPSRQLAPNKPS
Compound,Ki (Rho kinase 2 (ROCK2)),Ki (Rho kinase 1 (ROCK1)),inhibition in vivo at 0.01 mg/kg [1],Ratio (PKA/ROCK2) (PKA),inhibition in vivo at 0.003 mg/kg [1]
"Nc1nccc(-c2cnc(NCc3cccc(C(=O)Nc4ccc(N5CCNCC5)cn4)c3)c3c2OCC3)n1 [Example 53, 3-(((7-(2-aminopyrimidin-4-yl)-2,3-dihydrofuro[3,2-c]pyridin-4-yl)amino)methyl)-N-(5-(piperazin-1-yl)pyridin-2-yl)benzamide]",≤ 3 nM,≤ 3 nM,70.7 ± 3.4%,*** (ratio≥10),
"CN(C)CCC(=O)N1CCN(c2ccc(NC(=O)c3cccc(CNc4ncc(-c5ccnc(N)n5)c5c4CCO5)c3)nc2)CC1 [Example 66, 3-(((7-(2-aminopyrimidin-4-yl)-2,3-dihydrofuro[3,2-c]pyridin-4-yl)amino)methyl)-N-(5-(4-(3-(dimethylamino)propanoyl)piperazin-1-yl)pyridin-2-yl)benzamide]",≤ 3 nM,≤ 3 nM,79.4 ± 7.3%,*** (ratio≥10),
"C[C@@H]1CNCCN1c1ccc(NC(=O)c2cccc(CNc3ncc(-c4ccnc(N)n4)c4c3CCO4)c2)nc1 [Example 69, (R)-3-(((7-(2-aminopyrimidin-4-yl)-2,3-dihydrofuro[3,2-c]pyridin-4-yl)amino)methyl)-N-(5-(2-methylpiperazin-1-yl)pyridin-2-yl)benzamide]",≤ 3 nM,≤ 3 nM,74.8 ± 7.8%,*** (ratio≥10),
"CNCCNc1ccc(NC(=O)c2cccc(CNc3ncc(-c4ccnc(N)n4)c4c3CCO4)c2)nc1 [Example 70, 3-(((7-(2-aminopyrimidin-4-yl)-2,3-dihydrofuro[3,2-c]pyridin-4-yl)amino)methyl)-N-(5-((2-(methylamino)ethyl)amino)pyridin-2-yl)benzamide]",≤ 3 nM,≤ 3 nM,62.2 ± 7%,*** (ratio≥10),
"Nc1nccc(-c2cnc(NCc3cccc(C(=O)Nc4ccc(OC5CCNCC5)cn4)c3)c3c2OCC3)n1 [Example 71, 3-(((7-(2-aminopyrimidin-4-yl)-2,3-dihydrofuro[3,2-c]pyridin-4-yl)amino)methyl)-N-(5-(piperidin-4-yloxy)pyridin-2-yl)benzamide]",≤ 3 nM,≤ 3 nM,,*** (ratio≥10),47.9 ± 7.7%
"CNCCOc1ccc(NC(=O)c2cccc(CNc3ncc(-c4ccnc(N)n4)c4c3CCO4)c2)nc1 [Example 73, 3-(((7-(2-aminopyrimidin-4-yl)-2,3-dihydrofuro[3,2-c]pyridin-4-yl)amino)methyl)-N-(5-(2-(methylamino)ethoxy)pyridin-2-yl)benzamide]",≤ 3 nM,≤ 3 nM,76.6 ± 6%,*** (ratio≥10),
CN1C[C@H]2C[C@@H]1CN2c1ccc(NC(=O)c2cccc(CNc3ncc(-c4ccnc(N)n4)c4c3CCO4)c2)nc1 [Example 74],≤ 3 nM,≤ 3 nM,,*** (ratio≥10),77.7 ± 4%
"CN(C)CCNc1ccc(NC(=O)c2cccc(CNc3ncc(-c4ccnc(N)n4)c4c3CCO4)c2)nc1 [Example 77, 3-(((7-(2-aminopyrimidin-4-yl)-2,3-dihydrofuro[3,2-c]pyridin-4-yl)amino)methyl)-N-(5-((2-(dimethylamino)ethyl)amino)pyridin-2-yl)benzamide]",≤ 3 nM,≤ 3 nM,,*** (ratio≥10),79%
"CN1CCN(Cc2ccc(NC(=O)c3cccc(CNc4ncc(-c5ccnc(N)n5)c5c4CCO5)c3)nc2)CC1 [Example 78, 3-(((7-(2-aminopyrimidin-4-yl)-2,3-dihydrofuro[3,2-c]pyridin-4-yl)amino)methyl)-N-(5-((4-methylpiperazin-1-yl)methyl)pyridin-2-yl)benzamide]",≤ 3 nM,≤ 3 nM,68.8 ± 8.6%,*** (ratio≥10),
"Nc1nccc(-c2cnc(NCc3cccc(C(=O)Nc4ccc(OC[C@]5(F)CCNC5)cn4)c3)c3c2OCC3)n1 [Example 79, (S)-3-(((7-(2-aminopyrimidin-4-yl)-2,3-dihydrofuro[3,2-c]pyridin-4-yl)amino)methyl)-N-(5-((3-fluoropyrrolidin-3-yl)methoxy)pyridin-2-yl)benzamide]",≤ 3 nM,≤ 3 nM,58 ± 6%,*** (ratio≥10),
"CNC1(COc2ccc(NC(=O)c3cccc(CNc4ncc(-c5ccnc(N)n5)c5c4CCO5)c3)nc2)CCOCC1 [Example 80, 3-(((7-(2-aminopyrimidin-4-yl)-2,3-dihydrofuro[3,2-c]pyridin-4-yl)amino)methyl)-N-(5-((4-(methylamino)tetrahydro-2H-pyran-4-yl)methoxy)pyridin-2-yl)benzamide]",≤ 3 nM,≤ 3 nM,85.7 ± 0.8%,*** (ratio≥10),
"CNCc1ccc(NC(=O)c2cccc(CNc3ncc(-c4ccnc(N)n4)c4c3CCO4)c2)nc1 [Example 84, 3-(((7-(2-Aminopyrimidin-4-yl)-2,3-dihydrofuro[3,2-c]pyridin-4-yl)amino)methyl)-N-(5-((methylamino)methyl)pyridin-2-yl)benzamide]",≤ 3 nM,≤ 3 nM,89.5 ± 2%,*** (ratio≥10),

# — patent publication US20240092791A1, “DIHYDROFUROPYRIDINE DERIVATIVES AS RHO-KINASE INHIBITORS” (CHIESI FARMACEUTICI S.P.A., priority 2020, published 2024)
